Measurements reported in PMC4747340, “A new class of small molecule estrogen receptor-alpha antagonists that overcome anti-estrogen resistance” (Oncotarget, 2015).
pIC50: −log10 of the molar value. Counter-ions that a name gives are not always drawn. Like-named read-outs stand apart in the source and are kept apart here. Each block holds one molecule with its values, some of them ahead of it.

Assays:
[1] = MTT assay of cell viability; assay type: cell-based; settings: human, MCF-7 cells, 24-hr exposure, relative to untreated control
Method: Figure 3 Cytotoxicity and specificity of compounds A., B. Subconfluent proliferating cells were incubated with the indicated compound at the indicated concentration for 24-hr and then harvested for MTT dye reduction assays. Cell viability values (relative to untreated control cells) are means ± SEMs of 10 replicate wells. C., D. Subconfuent proliferating T47D cells were transfected overnight with the MMTV-Luc reporter (0.25 μg per well in 24-well dishes), washed, and allowed to recover for several hr in fresh medium. The cells were then treated with a synthetic progestin (R5020, 10 nM) plus the indicated compound at the indicated concentration for 24 hr and then harvested for luciferase assays. Luciferase activity is expressed relative to the MMTV-Luc control (no agents added) (panel A) or as a percentage of the +R5020 positive control (panel B). Values are means ± SEMs of four replicate wells. The data shown in each panel are representative of three independent experiments.
Assays were performed as described before. After the indicated treatment, cells in 96-well dishes were solubilized and assayed for MTT dye reduction. Cell viability was expressed as the amount of dye reduction relative to untreated control cells. and calculated as means ± SEMs for 10 replicate wells.

[2] = molecular target: T1, estrogen receptor-alpha (ER) (Homo sapiens, UniProt P03372); experiment: ER activity, ERE-TK-Luc reporter, in MCF-7 cells; assay type: cell-based; parameters: MCF-7 cells in 24-well dishes were transfected overnight with the ERE-TK-Luc reporter plasmid; endogenous in cells; host or cells: MCF-7; settings: for pIC50: read-out: IC50 for inhibition of E2-stimulated ER activity
T1 sequence (P03372 1-595): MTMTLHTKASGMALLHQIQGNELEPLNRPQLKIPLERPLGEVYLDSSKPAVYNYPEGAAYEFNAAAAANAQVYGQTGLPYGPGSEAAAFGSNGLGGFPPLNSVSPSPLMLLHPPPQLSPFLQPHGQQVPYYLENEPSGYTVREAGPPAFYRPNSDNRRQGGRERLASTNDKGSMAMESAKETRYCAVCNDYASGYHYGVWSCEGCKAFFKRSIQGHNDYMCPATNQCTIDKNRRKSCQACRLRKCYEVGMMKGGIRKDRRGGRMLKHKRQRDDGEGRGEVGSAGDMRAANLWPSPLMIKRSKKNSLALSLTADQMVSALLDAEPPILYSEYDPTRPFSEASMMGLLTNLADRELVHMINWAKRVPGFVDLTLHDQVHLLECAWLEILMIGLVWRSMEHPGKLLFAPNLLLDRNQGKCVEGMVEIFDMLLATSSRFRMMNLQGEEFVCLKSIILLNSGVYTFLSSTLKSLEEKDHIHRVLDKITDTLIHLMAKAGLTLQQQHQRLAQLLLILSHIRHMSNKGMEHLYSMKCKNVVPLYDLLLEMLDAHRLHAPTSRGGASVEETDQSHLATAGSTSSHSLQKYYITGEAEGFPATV
Method: (§1) For MCF-7, luciferase activity is expressed as a fold-change relative to the no E2 control. For LCC9, luciferase activity is expressed relative to the control without the reporter present. Values plotted are means ± SEMs of four replicate wells. The data shown in each panel are representative of three independent experiments.
The cells were then treated ± 17β-estradiol (E2, 10 nM) and with the indicated compound (@ 1 μM or 20 μM) or vehicle only (DMSO) for 24 hr and assayed for luciferase activity. Luciferase activity is expressed as a fold-change relative to the no E2 control. The data shown are representative of three independent experiments.
(§2) Subconfluent cells in 24-well dishes were transfected overnight with 0.25 μg of each indicated vector plus the ERE-TK-Luc reporter in serum-free DMEM containing Lipofectamine2000 (Life Technologies, Washington, DC). Total transfected DNA was kept constant by addition of control vector. The cells were washed, incubated in phenol red-free DMEM containing 5% charcoal-stripped serum (obtained from the Tissue Culture Shared Resource) (0.2 ml/well) ± E2 (10 nM) ± the indicated compound for 24-hr, and harvested for luciferase assays. For each assay condition was tested in quadrupicate. To monitor the transfection efficiency, cultures were co-transfected with plasmid pRSV-β-gal (Promega, Madison, WI) to visualize transfected cells by X-gal staining.

[3] = molecular target: T1, estrogen receptor-alpha (ER); experiment: constitutive ER activity, ERE-TK-Luc reporter, in anti-estrogen resistant LCC9 cells; assay type: cell-based; parameters: LCC9 cells in 24-well dishes were transfected overnight with the ERE-TK-Luc reporter plasmid; endogenous in cells; host or cells: LCC9; settings: LCC9, no E2, 24 hr; read-out: IC50 for inhibition of ER activity in LCC9
Method: as §1
The cells were then treated with the indicated concentrations of the six bioactive compounds or vehicle only (DMSO) for 24-hr and assayed for luciferase activity. Luciferase activity is expressed as a percentage of the DMSO control. Values are means ± SEMs of four replicate wells. The data shown in each panel are representative of three independent experiments.
The cells were then harvested for luciferase assays. Luciferase activity was expressed as a fold-change relative to the no reporter control. Values plotted are means ± SEMs of four replicate wells. The data shown are representative of three independent experiments.
as §2

LCC9 cells = experiment: cell proliferation assay (cell counts days 1, 3, 5), LCC9; assay type: cell-based, human; settings: DMEM + 5% charcoal-stripped serum, up to 5 days; 4631-P/1 at 1 μM
Method: Starting on day 1, cells were refed daily with fresh medium (DMEM plus 5% CSS) containing the indicated agent. In panel F, the cells were refed with medium also containing ER-siRNA or control-siRNA (100 nM) at the indicated times. Wells were counted on days 1, 3, and 5 to determine cell numbers. Values are means ± SEMs of triplicate wells. The data shown in each panel are representative of three independent experiments.
Assays were performed using as the growth medium phenol red-free DMEM containing 5% charcoal-stripped serum. Briefly, proliferating cells were harvested using trypsin, counted, inoculated into 12-well dishes at 1 × 10^4 cells per well on day 0 and allowed to attach and recover for 24 hr. The cells were then treated with the indicated agents for up to five days, with daily refeeding with fresh medium and agents. Triplicate wells were counted by Coulter Counter on days 1, 3, and 5. For experiments using siRNAs, cells were treated with the indicated siRNA (100 nM) starting on day -2, and fresh siRNA was added on days 0, 2, and 4.

[4] = body weight and signs of acute toxicity in tumor-bearing Balb/c nude mice; assay type: in vivo; settings: 5, 10 or 20 mg/kg intraperitoneally every other day, 21-day study interval
Method: For these studies we used LCC9 cells grown as subcutaneous tumors in Balb/c nude mice. To improve water solubility, the compound tested (NSC 35446) was prepared as the hydrochloride salt, as described in the Methods section. The mice were dosed intraperitoneally with vehicle (control) or NSC 35446 hydrochloride every other day at 5, 10, or 20 mg/kg. Treatments were initiated when the tumors reached 150-200 mm^3. […] For most time points except the earliest, differences in size between the treated and control tumors were significant (P < 0.05, ANOVA, Tukey's multiple comparison test). There appeared to be some delay in tumor growth at the 5 mg/kg dose; but by day 21, the treated tumors were approaching the control tumors in size. The T/C ratios (ie., ratios of the changes in volume of treated tumors to that of control tumors) on day-21 were: 0.77 (5 mg/kg), 0.24 (10 mg/kg), and 0.15 (20 mg/kg).
Athymic Balb/c nude mice were purchased from Charles River. Mice were housed 5 per cage with microisolater tops and provided food (Furina mice chow) and water ad libitum. The light cycle was regulated automatically (12 hours light/dark cycle) and temperature 23±1°C. Animals were allowed to acclimate to this environment for one week prior to usage. […] The tumor size of each mouse was measured by caliper and calculated by the formula: length × width × width/2 and the body weight was recorded.

LCC9 tumor xenografts = experiment: LCC9 tumor xenograft growth in Balb/c nude mice; assay type: in vivo
Method: Figure 13 Compound NSC 35446 hydrochloride salt inhibits the growth of LCC9 breast cancer xenografts in athymic nude mice Experiments were performed as described in the Methods and Results sections. The effects of the compound administered intraperitoneally every other day at 5 mg/kg A., 10 mg/kg B., and 20 mg/kg C. are shown and compared with that of vehicle only (control, CT). Values of tumor volume are means ± SDs for N=5 mice per group. Athymic Balb/c nude mice were purchased from Charles River. Mice were housed 5 per cage with microisolater tops and provided food (Furina mice chow) and water ad libitum. The light cycle was regulated automatically (12 hours light/dark cycle) and temperature 23±1°C. Animals were allowed to acclimate to this environment for one week prior to usage. The Georgetown University Animal Care and Use Committee approved all animal studies in accordance with NIH guidelines. The stock solution of NSC 35446 hydrochloride was dissolved in DMSO at 200 mg/ml. The working solution was prepared using 10% Kolliphor ELP (Sigma-Aldrich), 3% PEG400 (Hampton Research, HR2-603); and 87% PBS to give a 1 mg/ml solution. Female Balb/c nude mice (18-22g) were injected with LCC9 cells (3 × 10^6 cells in a volume of 0.3 ml) in the subcutaneous tissue of the right axillary region. The mice were randomly sorted into groups with N=5 mice per group; and treatments were initiated when the tumors reached 150-200 mm^3. The tumor-bearing mice were given intraperitoneal injections of vehicle only (control), 5 mg/kg, 10 mg/kg, or 20 mg/kg of NSC 35446 hydrochloride every other day. The tumor size of each mouse was measured by caliper and calculated by the formula: length × width × width/2 and the body weight was recorded.

[5] = MCF7, MCF-7, E2 10 nM, compound 1 μM, 24 hr, read-out: inhibition of E2-stimulated ER activity at 1 μM

SMILES: CC(C)=CC1C(COC(=O)c2cc3c(cc2Cl)OCO3)C1(C)C (centres unmarked) [48693-K/1]
viability at 24 h, 1 µM [1]: 100% | viability at 24 h, 20 µM [1]: > 90% | inhibition at 1 µM ([2]; MCF7, read-out: inhibition of E2-stimulated ER activity at 1 μM): ≥ 50% | pIC50 ([2]; MCF-7, E2 10 nM, 24 hr): ≥ 6.00 | pIC50 [3]: 5.40

inhibition at 1 µM [2, 5]: ≥ 50% | pIC50 ([2]; MCF-7, E2 10 nM, 24 hr): ≥ 6.00 | pIC50 [3]: 4.52
SMILES: Sc1ccc2ccccc2c1CNCc1ccccc1 [81747-N/1]
viability at 24 h, 1 µM [1]: 100% | viability at 24 h, 20 µM [1]: > 90%

SMILES: c1ccc2c(c1)-c1ccccc1C2N1CC2CCC(CC2)C1 [88999-U/1]
inhibition at 1 µM [2, 5]: ≥ 50% | pIC50 ([2]; MCF-7, E2 10 nM, 24 hr): ≥ 6.00 | pIC50 [3]: ≥ 6.00

pIC50 ([2]; MCF-7, E2 10 nM, 24 hr): ≥ 6.00 | inhibition of E2-stimulated ER activity at 1 μM ([2]; MCF-7, E2 10 nM, compound 1 μM, 24 hr): ≥ 50% | pIC50 [3]: ≥ 6.00
SMILES: OCC(CCc1c[nH]c2ccccc12)c1c[nH]c2ccccc12 (centres unmarked) [372127-T/1]

SMILES: C[C@]12CC[C@@H]3c4ccc(O)cc4CC[C@H]3[C@@H]1CC[C@@H]2O [E2, 17β-estradiol, reference compound]
effect on LCC9 cell growth, single agent (LCC9 cells): Neither E2 nor Tam significantly altered growth of LCC9

SMILES: O=C(CC(c1ccccc1)N1CCCCC1)c1ccccc1 (centres unmarked) [NSC 35446 hydrochloride, 1,3-diphenyl-3-(piperidin-1-yl)propan-1-one]
body weight and signs of acute toxicity [4]: No significant changes in body weight or obvious signs of acute toxicity | T/C ratio (change in volume of treated tumors to control tumors) on day-21 (LCC9 tumor xenografts; 5 mg/kg intraperitoneally every other day): 0.77 | T/C ratio (change in volume of treated tumors to control tumors) on day-21 (LCC9 tumor xenografts; 10 mg/kg intraperitoneally every other day): 0.24 | T/C ratio (change in volume of treated tumors to control tumors) on day-21 (LCC9 tumor xenografts; 20 mg/kg intraperitoneally every other day): 0.15 | effect on LCC9 tumor growth (LCC9 tumor xenografts; intraperitoneally every other day, 21-day study): efficacious at the 10 mg/kg and 20 mg/kg doses in slowing tumor growth or causing tumor stasis

SMILES: CC/C(=C(\c1ccccc1)c1ccc(OCCN(C)C)cc1)c1ccccc1 [Tam, Tamoxifen, reference compound]
effect on LCC9 cell growth, single agent (LCC9 cells): Neither E2 nor Tam significantly altered growth of LCC9
